Measurements reported in patent US4677968A, “Methods of testing the reaction of various substances on living human skin” (priority 1986, dated 1987).

What was measured:
[1] = test system: rat/rat skin sandwich flap (enzyme in the skin, deaminase); experiment: Metabolism of vidarabine in the rat/rat skin sandwich flap; type: in vivo; conditions: radiolabeled vidarabine on rat/rat flap, half-cell diffusion chamber
Text: (§1) In this example, the procedure followed in Example 1 was followed to produce a rat/rat skin flap with accessible vasculature.
Test compounds were applied to either the host or the graft side of the flap. Test compounds in their vehicles were placed in either a 1.5 cm diameter well, prepared from a HolliSeal® skin barrier (a sheet of silicone material with adhesive on both sides) (Hollister Incorporated, Libertyville, IL), or in a half-cell diffusion chamber. The HolliSeal well is generally covered with Parafilm to prevent evaporation. […]
(§2) At the time of an experiment, with the animal under Ketamine anesthesia, the vessels supplying and draining the flap were exposed through an incision over the inguinal ligament. […] Concentration of radiolabeled compound, or its metabolities, in the blood were subsequently assessed by liquid scintillation counting and chromatographic techniques. Concentrations in the donor chamber were sampled periodically and quantitated in a similar manner.
Additional experiments, using an antiviral substance, vidarabine, have been performed to assess the metabolic activity in the skin. […] Accordingly, radiolabeled vidarabine was placed on a rat/rat skin sandwich flap system, and the amount of vidarabine and its metabolite, ara-H, was measured in the blood draining the flap.

[2] = test system: rat/rat flap; experiment: Role of blood flow on percutaneous absorption (iontophoresis of phenylephrine), rat/rat flap; type: in vivo; conditions: iontophoresis, circumscribed area
Description: (§3) In this example the experimental procedure described in Example 1 was followed and a rat/rat flap was prepared using an identical procedure. The purpose of this example is to illustrate the role of blood flow on percutaneous absorption processes. In this example, blood flow was locally altered by iontophoresis of phenylephrine. […] The experiment was repeated two weeks later in a nontreated mode, i.e., no alteration in the microcirculation. […] In the situtaton where there is no alteration in the mircocirculation, peak levels occur in approximately 10 minutes. There results reveal that in situations, where compounds are rapidly absorbed, microcirculation to the skin is of critical importance.

[3] = test system: host rat graft or human graft (rat skin vs. human skin); conditions: in vivo
Description: The objective of this experiment was to determine differences in absorption, rat skin vs. human skin, rat graft vs. rat host skin, with a second agent, caffeine.

[4] = In vivo topical application of caffeine in the flap system of Example 1; conditions: rat, topical or ocular; in vivo, topical application; read-out: time of peak levels of caffeine
Description: (§4) Compounds will frequently bind to the skin. Thus, after being absorbed through the outer protective layer, the stratum corneum, there is a possibility that the compound being tested will not be absorbed into the blood stream. It is anticipated that caffeine could be such a product. […] It is surprising to observe peak levels of caffeine within 30 minutes of topical application in the in vivo situation using the system described in Example 1. […] This confirmed the notion that there are binding sites of caffeine within the dermis.

[5] = test system: skin flap (system described in Example 1); experiment: as above
Description: as §4

[6] = test system: human skin; experiment: In vitro topical application of caffeine to human skin; type: in vitro ADME
Description: as §4

[7] = test system: rat/rat flap (host skin / grafted skin); experiment: Absorption of benzoic acid across host vs. graft side of the rat/rat skin flap (flap blood sampling); type: in vivo
Text: Breeding pairs of nude rats were obtained from the Animal Production Facility of the National Cancer Institutes (Frederick, MD) and the colony was expanded by mating male rats homozygous for nude (athymic) with females heterozygous for nude.
(§5) A skin flap was generated by incising the abdominal skin of the rat along three sides. The donor STSG was trimmed to approximate the size of the epigastric flap and was placed in the wound, with the epidermis facing the abdominal musculature of the host. The overlying epigastric host skin was returned to its normal anatomic position. The epigastric skin and the STSG were sutured in place, creating a sandwich having a vascular pedicle sandwiched between the skin layers. This surgical procedure produced a flap which received essentially all of its blood from the superficial epigastric vessels.
(§6) Two weeks later, the femoral vessels distal to the origin of the superficial epigastric vessels were surgically isolated and divided. This manipulation maximized the blood flow from the femoral artery to the sandwich flap. The flap was raised and isolated on its neurovascular pedicle (a single artery, vein, and nerve) using the operating microscope.
(§7) The donor site on the rat's abdomen was covered with a STSG from another syngeneic animal and sutured in place. The flap, on its isolated vascular pedicle, was moved through a subcutaneous tunnel to the rat's dorsum, where it was sutured in place.
as §1
Test compounds were applied to either the host or the graft side of the flap. Test compounds in their vehicles were placed in either a 1.5 cm diameter well, prepared from a HolliSeal® skin barrier (a sheet of silicone material with adhesive on both sides) (Hollister Incorporated, Libertyville, IL), or in a half-cell diffusion chamber. The HolliSeal well is generally covered with Parafilm to prevent evaporation. The half-cell diffusion chamber has a 2.7 ml volume, an impeller to avoid problems of unstirred solutions, a water jacket to maintain a constant temperature, and a sampling port (Dependable Scientific Glass, Salt Lake City, UT).
In an initial series of experiments ^14 C benzoic acid, specific activity 58.6 mCi/mM (New England Nuclear, Boston MA) in phosphate buffered saline, was used in various concentrations in the HolliSeal well and the half-cell diffusion chamber. These experiments were designed to compare the absorption of benzoic acid across the host and graft sides of the flap as a means of validating the system. In another series of experiments 3H-vidarabine, specific activity 38 mCi/mg (2.7 ml), was added to a half-cell diffusion chamber to validate the flap as a system to study the metabolism of a drug as it crosses the skin. 3H-vidarabine, specific activity 38 mCi/mg (2.7 ml), was added to a half-cell diffusion chamber attached to rat/rat skin sandwich flaps, which had previously been tape-stripped.
At the time of an experiment, with the animal under Ketamine anesthesia, the vessels supplying and draining the flap were exposed through an incision over the inguinal ligament. A venotomy was made in the femoral vein proximal to the juncture of the superficial epigastric vein to sample flap blood. A venotomy was also made in the contralateral femoral view to sample systemic blood. The blood samples (approximately 40 ul) were collected periodically in heparinized microhematocrit capillary tubes. Concentration of radiolabeled compound, or its metabolities, in the blood were subsequently assessed by liquid scintillation counting and chromatographic techniques. Concentrations in the donor chamber were sampled periodically and quantitated in a similar manner. […]

[8] = test system: rat/human flap (host side); experiment: Transdermal flux of benzoic acid in the rat/human flap, host side; type: in vivo
Text: as §5, §6, §7
Test compounds were applied to either the host or the graft side of the flap. […]
as §2, with “manner. […]” for “manner.”
In this experiment, 20 ug of ^14 C benzoic acid (4.5 uCi) in 95% ethanol was applied to the host side of the flap. […] Thereafter steady state was attained and flux was calculated to be 0.045 uCi/min/cm^2. […]

[9] = Role of blood flow on percutaneous absorption (iontophoresis of phenylephrine), rat/rat flap; type: in vivo; conditions: rat, in vivo, topical or ocular
Description: as §3

[10] = test system: flap; conditions: rat, in vivo
Text: Following an intravenous injection of fluorescein, the amount of fluorescein that moves into tissue, and the rapidity with which it clears, depends upon the volume of blood to the area, the adequacy of venous drainage, and renal clearance. The influx and clearance of fluorescein, as measured with a surface hand-held dermofluorometer, has been evaluated as a function of time after occluding either the supplying artery or the draining vein.
Instrumentation used included: (1) Dermatome (Brown Electro-Dematome, Model 666, Zimmer Inc., Warsaw, IN) to generate the split-thickness skin grafts; (2) an operating microscope (Model OPMI 6-SD Carl Zeiss, West Germany) equipped with a fiberoptic illuminator (Model 310187, Dyonics, Andover, MA), to isolate the microvasculature supplying the skin flap; (3) Laser Doppler flow velocimeter (LD 5000, Med Pacific, Seattle, WA)--to noninvasively assess microcirculation of the skin; (4) electromagnetic blood flow transducer, C type 0.5 mm, 0.8 mm, and 1 mm in diameter (C&C INstruments, Culver City, CA)--to directly assess blood flow through the vessels supplying and draining the flap; and (5) a hand-held fiberoptic dermofluorometer (Fluoroscan-Santa Barbara Technology, Santa Barbara, CA), to assess blood flow by monitoring the appearance and clearance of fluorescein in the flap.

[11] = test system: rat/rat skin sandwich flap (enzyme in the skin, deaminase); conditions: stated as known; cited from earlier work
[12] = grafted side, three weeks later

SMILES: O=c1[nH]cnc2c1ncn2[C@@H]1O[C@H](CO)[C@@H](O)[C@@H]1O [ara-H]
- back-diffusion through the skin into the donor chamber [1]: diffused back through the skin into the donor chamber

SMILES: CNC[C@H](O)c1cccc(O)c1 [phenylephrine]
- effect on local microcirculation [2]: decreased microcirculation

SMILES: Cn1c(=O)c2c(ncn2C)n(C)c1=O [caffeine]
- increase in absorption, rat skin relative to human skin [3]: ~8 fold
- Tmax [4]: ≤ 30 min
- effect of a second dose on absorption ([5]; in vivo, two doses): greater than predicted absorption
- binding in the skin ([5]; lower layer of skin / dermis, in vitro vs. in vivo comparison): there are binding sites within the lower layer of skin which bind caffeine
- time until appearance in the donor chamber ([6]; topical, human skin): 6 to 12 h
- effect of a second dose on absorption ([6]; two doses): did not alter absorption

SMILES: O=C(O)c1ccccc1 [benzoic acid]
- decrease in concentration in the donor well (time course) ([7]; donor well): linear with time
- benzoic acid concentration in the donor well, start of decrease ([7]; donor well, decreasing from): 2.2 µg/mL
- benzoic acid concentration in the donor well, end of decrease ([7]; donor well, decreasing to): 0.75 µg/mL
- course of flux after the peak [7, 12]: even more rapid decline
- peak flux across the grafted side [7, 12]: 2.2 uCi/min/cm^2
- course of flux after the peak ([7]; host skin): decreased rapidly
- time of peak flux ([7]; host skin, HolliSeal well, 0.52 uCi/ul in unbuffered water, 100 ul): 30 min
- flux across host skin ([7]; host skin, assuming a blood flow of 1.5 ml/min): 0.84 uCi/min/cm^2
- total amount absorbed ([7]; same for host and grafted side): 1.04 µg·min/µL
- steady state flux ([8]; 20 ug (4.5 uCi) in 95% ethanol): 0.045 uCi/min/cm^2
- time of peak flux ([8]; 20 ug (4.5 uCi) in 95% ethanol): one
- time of peak flux ([8]; half-cell diffusion chamber, maximal hydration of the skin): ≤ 10 min
- Tmax ([9]; decreased microcirculation (iontophoresis of phenylephrine), read-out: time of peak benzoic acid levels in flap blood (converted)): ~140 min
- Tmax ([9]; no alteration in the microcirculation, two weeks later, read-out: time of peak levels in flap blood (converted)): ~10 min

SMILES: O=C1OC2(c3ccc(O)cc3Oc3cc(O)ccc32)c2ccccc21 [fluorescein]
- appearance of fluorescein in the flap [10]: failure of the appearance of fluorescein in the flap

SMILES: Nc1ncnc2c1ncn2[C@@H]1O[C@H](CO)[C@@H](O)[C@@H]1O [vidarabine]
- metabolism by an enzyme in the skin, deaminase [11]: metabolized by an enzyme in the skin, deaminase
